Laboratory results published in US20210284668A1, “GOLD (I)-PHOSPHINE 1,2,3-TRIAZOLE DERIVATIVES WITH ANTIBIOTIC PROPERTIES” (Centre National de la Recherche Scientifique, priority 2018, published 2021).
Values joined by “and” are separate entries in the source; they are usually repeats but may differ in a detail not shown here. Equal values may be shown once.

Assays:
E. faecium BM4147 = assay: MIC by microdilution, E. faecium BM4147; format: cell-based, Enterococcus faecium; set-up: unit not given here; conditions: E. faecium BM4147 (VanA positive, glycopeptide resistant), in duplicate
Summary of the method: (§1)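 Broth microdilution per CLSI document M07-A10, Mueller-Hinton medium, each MIC run in duplicate. Strains include E. coli ATCC25922 (wild-type), S. epidermidis ATCC35984 (MecA positive) and S. aureus ATCC700699 (MecA positive, glycopeptide resistant), within a mixed panel of susceptible and resistant Gram-positive/Gram-negative bacteria.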

[1] = test system: Clostridium difficile ATCC700057; assay: MIC by microdilution, Clostridium difficile; format: cell-based; conditions: strain ATCC70057 [sic] (Tables 1-2) / ATCC700057 (Tables 3-10), in duplicate
E. faecium AUS0004 = assay: MIC by microdilution, E. faecium AUS0004; format: cell-based, Enterococcus faecium; conditions: E. faecium AUS0004 (VanB positive, glycopeptide resistant), in duplicate
Summary of the method: as §1

[2] = test system: panel of Gram-positive and Gram-negative strains; assay: Antibacterial profile on the selected panel of strains; format: cell-based; conditions: summary of Tables 1-12
Summary of the method: as §1

E. coli ATCC25922 = assay: MIC by microdilution, E. coli ATCC25922; format: cell-based, Escherichia coli; conditions: E. coli ATCC25922 (wild-type), in duplicate
Summary of the method: as §1

E. faecalis V583 = assay: MIC by microdilution, E. faecalis V583; format: cell-based, Enterococcus faecalis; conditions: E. faecalis V583 (VanB positive, glycopeptide resistant), in duplicate
Summary of the method: as §1

S. aureus ATCC25923 = assay: MIC by microdilution, S. aureus ATCC25923; format: cell-based, Staphylococcus aureus; conditions: S. aureus ATCC25923 (MecA negative, wild-type), Mueller-Hinton broth, in duplicate
Summary of the method: as §1

E. faecalis JH2-2 = assay: MIC by microdilution, E. faecalis JH2-2; format: cell-based, Enterococcus faecalis; set-up: unit not given here; conditions: E. faecalis JH2-2 (wild-type), in duplicate
Summary of the method: as §1

E. faecium ATCC19434T = assay: MIC by microdilution, E. faecium ATCC19434T; format: cell-based, Enterococcus faecium; set-up: unit not given here; conditions: E. faecium ATCC19434T (wild-type), in duplicate
Summary of the method: as §1

S. aureus ST20131365 = assay: MIC by microdilution, S. aureus ST20131365; format: cell-based, Staphylococcus aureus; conditions: S. aureus ST20131365 (MecA positive, glycopeptide resistant), in duplicate
Summary of the method: as §1

S. epidermidis ATCC14990 = assay: MIC by microdilution, S. epidermidis ATCC14990; format: cell-based, Staphylococcus epidermidis; conditions: S. epidermidis ATCC14990 (MecA negative, wild-type), in duplicate
Summary of the method: as §1

S. aureus ATCC29213 = assay: MIC by microdilution, S. aureus ATCC29213; format: cell-based, Staphylococcus aureus; conditions: S. aureus ATCC29213 (MecA negative, wild-type), Mueller-Hinton broth, in duplicate
Summary of the method: as §1

E. faecalis UCN41 = assay: MIC by microdilution, E. faecalis UCN41; format: cell-based, Enterococcus faecalis; set-up: unit not given here; conditions: E. faecalis UCN41 (VanA positive, glycopeptide resistant), in duplicate
Summary of the method: as §1

S. epidermidis ATCC35984 = assay: MIC by microdilution, S. epidermidis ATCC35984; format: cell-based, Staphylococcus epidermidis; conditions: S. epidermidis ATCC35984 (MecA positive), in duplicate
Summary of the method: as §1

[3] = test system: S. epidermidis ST20150446; assay: MIC by microdilution, S. epidermidis ST20150446; format: cell-based, Staphylococcus epidermidis; conditions: S. epidermidis ST20150446 (MecA positive, glycopeptide resistant), in duplicate
Summary of the method: as §1

S. aureus ATCC700699 = assay: MIC by microdilution, S. aureus ATCC700699; format: cell-based, Staphylococcus aureus; set-up: unit not given here; conditions: S. aureus ATCC700699 (MecA positive, glycopeptide resistant), in duplicate
Summary of the method: as §1

[4] = test system: S. epidermidis ST20140436; assay: MIC by microdilution, S. epidermidis ST20140436; format: cell-based, Staphylococcus epidermidis; conditions: S. epidermidis ST20140436 (MecA positive, glycopeptide resistant), in duplicate
Summary of the method: as §1

Row | Structure (SMILES) | Minimal Inhibitory Concentration (MIC) (E. faecium BM4147) | Minimal Inhibitory Concentration (MIC) [1] | Minimal Inhibitory Concentration (MIC) (E. faecium AUS0004) | antimicrobial / antibacterial activity (in words) [2] | Minimal Inhibitory Concentration (MIC) (E. coli ATCC25922) | Minimal Inhibitory Concentration (MIC) (E. faecalis V583) | Minimal Inhibitory Concentration (MIC) (S. aureus ATCC25923) | Minimal Inhibitory Concentration (MIC) (E. faecalis JH2-2) | Minimal Inhibitory Concentration (MIC) (E. faecium ATCC19434T) | Minimal Inhibitory Concentration (MIC) (S. aureus ST20131365) | Minimal Inhibitory Concentration (MIC) (S. epidermidis ATCC14990) | Minimal Inhibitory Concentration (MIC) (S. aureus ATCC29213) | Minimal Inhibitory Concentration (MIC) (E. faecalis UCN41) | Minimal Inhibitory Concentration (MIC) (S. epidermidis ATCC35984) | Minimal Inhibitory Concentration (MIC) [3] | Minimal Inhibitory Concentration (MIC) (S. aureus ATCC700699) | Minimal Inhibitory Concentration (MIC) [4]
1 | CC[P+](CC)(CC)[Au-][c]1nn[nH]c1COC(=O)NC(C(=O)O)c1ccccc1 (stereo not shown) [TMB1] | 1 | ≤0.06 | 0.5 | have antimicrobial activity | >8 | 0.5 and 1 | 0.125 | 0.25 and 0.5 | 0.5 | 0.125 | ≤0.06 | 0.125 | 0.5 | ≤0.06 | ≤0.06 | 0.125 and 0.25 | ≤0.06
2 | CC1(C)S[C@@H]2[C@H](NC(=O)[C@H](NC(=O)OCc3cnn[nH]3)c3ccccc3)C(=O)N2[C@H]1C(=O)O [TMB5] | >8 | 4 | >8 | do not show an antibacterial activity | >8 | 4 | 2 | 2 and 4 | 8 | >8 | 1 | 2 | 8 | >8 | >8 | >8 | 8/>8
3 | CC1(C)S[C@@H]2[C@H](NC(=O)[C@H](NC(=O)CCc3cnnn3Cc3ccccc3)c3ccccc3)C(=O)N2[C@H]1C(=O)O [TMB6] | >8 | 2-4 | >8 | do not show an antibacterial activity | >8 | 4 | 0.5 | 2 and 4 | 8 | >8 | 0.5 | 0.5 and 1 | 8 | >8 | 4 and 8 | >8 | 4
4 | CC1(C)S[C@@H]2[C@H](NC(=O)[C@H](NC(=O)OCc3cnnn3Cc3ccccc3)c3ccccc3)C(=O)N2[C@H]1C(=O)O [TMB7] | >8 | 4 | >8 | do not show an antibacterial activity | >8 | 2 | 1 | 1 and 2 | 8 | >8 | 1 | 1 | 4 | >8 | >8 | >8 | 8
5 | CC[P+](CC)(CC)[Au-][c]1nn[nH]c1COC(=O)NC(C(=O)NC)c1ccccc1 (stereo not shown) [TMB8] | 2 | ≤0.06-0.125 | 2 | have antimicrobial activity | >8 | 2 | 0.25 | 1 | 1 and 2 | 0.25 and 0.5 | ≤0.06 | 0.25 | 1 and 2 | ≤0.06 | 0.125 | 0.25 and 0.5 | 0.125
6 | CC1(C)S[C@@H]2[C@H](NC(=O)[C@H](NC(=O)CCc3cn(Cc4ccccc4)nn3)c3ccccc3)C(=O)N2[C@H]1C(=O)O [TMB9] | >8 | 2-4 | >8 | do not show an antibacterial activity | >8 | 4 | 1 | 2 | 8 | >8 | 1 | 1 | 8 | >8 | 8/>8 | >8 | 8
7 | CC[P+](CC)(CC)[Au-][c]1nn[nH]c1-c1cccc(C(=O)O)c1 [TMB13] | 2 | ≤0.06 | 1 and 2 | have antimicrobial activity | >8 | 1 and 2 | 0.125 | 1 and 2 | 0.5 | 0.25 | ≤0.06 | 0.125 and 0.25 | 1 and 2 | ≤0.06 | ≤0.06 | 0.25 | ≤0.06
8 | CC[P+](CC)(CC)[Au-][c]1nn[nH]c1COC(=O)NC(C(=O)OC(C)(C)C)c1ccccc1 (stereo not shown) [TMB15] | 4 | 0.125 and 0.25 | 2 | have antimicrobial activity | >8 | 2 and 4 | 0.25 and 0.5 | 2 | 2 | 0.25 and 0.5 | ≤0.06 | 0.5 | 2 | ≤0.06 | 0.125 and 0.25 | 0.5 | 0.125
